As a reminder, the IC50 is the midpoint of a concentration-inhibition curve.

Experimental findings from patent US12122785B2, “Substituted pyridines, pyridazines, pyrimidines, and 1,2,4-triazines as TYK2 inhibitors” (Sudo Biosciences Limited, priority 2021, dated 2024) are described below.

Holding throughout (type): cell-based
For test [1], the system named is TYK2 pseudokinase (JH2); IFNα-stimulated HEK-Blue IFNα/β cells. The experiment in a line: HEK-Blue IFNα/β reporter assay (STAT1-inducible SEAP) for profiling TYK2 pseudokinase (JH2) inhibition. To be noted: 1 ng/mL human recombinant IFNα, SEAP readout, read-out: IFNα (TYK2 inhibitory activity, IC50). As for the experimental part: (§1) Example B-1: HEK-Blue™ IL-23 and IFNα/β Reporter Assays for Profiling TYK2 Pseudokinase (JH2) Inhibition
(§2) HEK-Blue™ IL-23 and IFNα/β cells with a stably-integrated cytokine receptor and STAT3 or STAT1 express STAT-inducible secreted embryonic alkaline phosphatase (SEAP) reporter gene upon cytokine stimulation. These cells are plated in DMEM (Gibco) containing 10% heat-inactivated FBS (Gibco) and 100 U/mL PenStrep (Gibco) at 37° C. under 5% CO2 conditions for 20-22 hours. The cells are then pretreated with serially diluted test compounds for 60 min prior to stimulation with either 10 ng/mL human recombinant IL-23 (Miltenyl Biotech) or 1 ng/mL human recombinant IFNα (InvivoGen) for 22-24 hours for IL-23 or 16-18 h for IFNα. SEAP induction is measured using the QUANTI Blue™ Solution (InvivoGen) according to the manufacturer's instructions.
For orientation: Reporter assays use an easily measured gene product as a stand-in for the process of interest.

In test [2] the test system is TYK2 pseudokinase (JH2); IL-23-stimulated HEK-Blue IL-23 cells. The experiment in a line: HEK-Blue IL-23 reporter assay (STAT3-inducible SEAP) for profiling TYK2 pseudokinase (JH2) inhibition. The following applies: 10 ng/mL human recombinant IL-23, SEAP readout, read-out: IL23 (TYK2 inhibitory activity, IC50). As for the experimental part: as §1, §2
Test [3] relates to IL-2-stimulated HEK-Blue IL-2 reporter cells. The experiment in a line: HEK-Blue IL-2 reporter assay (STAT5-inducible SEAP) for determining selectivity. To be noted: 4 ng/mL human recombinant IL-2, 24 hours. As for the experimental part: (§3) Example B-3: HEK-Blue™ IL-2 and IFNγ Reporter Assays for Determining Selectivity
(§4) HEK-Blue™ IL-2 and IFNγ reporter cells with a stably-integrated cytokine receptor and STAT5 or STAT1 express STAT-inducible secreted embryonic alkaline phosphatase (SEAP) reporter gene upon cytokine stimulation. These cells were plated in DMEM (Gibco) containing 10% heat-inactivated FBS (Gibco) and 100 U/mL PenStrep (Gibco) at 37° C. under 5% CO2 conditions for 20-22 hours. The cells were then pretreated with serially diluted test compounds for 60 min prior to stimulation with either 4 ng/mL human recombinant IL-2 (Miltenyl Biotech) or 50 ng/mL human recombinant IFNγ (InvivoGen) for 24 hours. SEAP induction was measured using the QUANTI-Blue™ Solution (InvivoGen) according to the manufacturer's instructions.

For test [4], the system named is IFNγ-stimulated HEK-Blue IFNγ reporter cells. The experiment in a line: HEK-Blue IFNγ reporter assay (STAT1-inducible SEAP) for determining selectivity. To be noted: 50 ng/mL human recombinant IFNγ, 24 hours, read-out: IFN-γ SEAP selectivity assay IC50. Here is the method: as §3, §4

A value given as a limit tells only on which side of the number the result lay.

`CNC(=O)c1nnc(Nc2ccc(F)cn2)cc1Nc1cccc2c1OC(C)c1cn(C)nc1-2` (stereo not drawn) [Compound 11, 4-((2,4-dimethyl-2,4-dihydrochromeno[4,3-c]pyrazol-6-yl)amino)-6-((5-fluoropyridin-2-yl)amino)-N-methylpyridazine-3-carboxamide]: the IC50 in test [1] was more than 1000 nM; in test [2], 30 to 300 nM.
Turning to `[2H]C([2H])([2H])NC(=O)c1cnc(NC(=O)C2CC2)cc1Nc1cccc2c1N(C)Cc1cc(C(F)(F)F)nn1-2` [Compound 55, 6-(cyclopropanecarboxamido)-N-(methyl-d3)-4-((5-methyl-2-(trifluoromethyl)-4,5-dihydropyrazolo[1,5-a]quinoxalin-6-yl)amino)nicotinamide], the IC50 in test [1] is 300 to 1000 nM; in test [2], 30 to 300 nM.
Take `[2H]C([2H])([2H])NC(=O)c1cnc(NC(=O)C2CC2)cc1Nc1nccc2c1N(C)C([2H])([2H])c1cc(C)nn1-2` [Compound 76, 6-(cyclopropanecarboxamido)-4-((2,5-dimethyl-4,5-dihydropyrazolo[1,5-a]pyrido[3,4-e]pyrazin-6-yl-4,4-d2)amino)-N-(methyl-d3)nicotinamide]: the half-inhibitory concentration (IC50) is less than 30 nM in test [1], more than 1000 nM in test [3], 300 to 1000 nM in test [4] and less than 30 nM in test [2].
For `[2H]C([2H])([2H])NC(=O)c1nnc(NC(=O)C2CC2)cc1Nc1nccc2c1N(C)[C@@H](C)c1cn(C)nc1-2` (single isomer, unassigned) [Compound 69], the IC50 in test [1] and in test [2] was 30 to 300 nM throughout.
Consider `[2H]C([2H])([2H])NC(=O)c1cnc(NC(=O)C2CC2)cc1Nc1cccc2c1N(C)C([2H])([2H])c1cc(C)nn1-2` [Compound 57, 6-(cyclopropanecarboxamido)-4-((2,5-dimethyl-4,5-dihydropyrazolo[1,5-a]quinoxalin-6-yl-4,4-d2)amino)-N-(methyl-d3)nicotinamide], for which the IC50 in test [1] was less than 30 nM; in test [3] it was more than 1000 nM; in test [4] it was 30 to 300 nM; in test [2] it was less than 30 nM.
As to `CNC(=O)c1nnc(Nc2ccc(F)cn2)cc1Nc1cccc2c1OCc1cn(C3COC3)nc1-2` [Compound 3, 6-[(5-fluoropyridin-2-yl)amino]-N-methyl-4-{[2-(oxetan-3-yl)-2H,4H-chromeno[4,3-c]pyrazol-6-yl]amino}pyridazine-3-carboxamide], the IC50 in test [1] is more than 1000 nM; in test [3], 300 to 1000 nM; in test [4], 300 to 1000 nM; in test [2], 30 to 300 nM.
Regarding `CNC(=O)c1nnc(NC(=O)C2CC2)cc1Nc1cccc2c1OC(C)c1cn(C)nc1-2` (stereo not drawn) [Compound 10, 6-(cyclopropanecarboxamido)-4-((2,4-dimethyl-2,4-dihydrochromeno[4,3-c]pyrazol-6-yl)amino)-N-methylpyridazine-3-carboxamide], the results for the IC50 in test [1] and in test [2] were more than 1000 nM and 30 to 300 nM, respectively.
With `[2H]C([2H])([2H])NC(=O)c1cnc(NC(=O)C2COC2)cc1Nc1cccc2c1N(C)Cc1cn(C)nc1-2` [Compound 24, 4-((2,5-dimethyl-4,5-dihydro-2H-pyrazolo[4,3-c]quinolin-6-yl)amino)-N-(methyl-d3)-6-(oxetane-3-carboxamido)nicotinamide], the IC50 in test [1] and in test [2] was 30 to 300 nM throughout.
As for `[2H]C([2H])([2H])NC(=O)c1cnc(NC(=O)C2CC2)cc1Nc1nccc2c1N(C)Cc1cc(C)nn1-2` [Compound 71, 6-(cyclopropanecarboxamido)-4-((2,5-dimethyl-4,5-dihydropyrazolo[1,5-a]pyrido[3,4-e]pyrazin-6-yl)amino)-N-(methyl-d3)nicotinamide], the IC50 is less than 30 nM in test [1], more than 1000 nM in test [3], more than 1000 nM in test [4] and less than 30 nM in test [2].
In the case of `CNC(=O)c1nnc(NC(=O)C2CC2)cc1Nc1cccc2c1OCc1cn(C3COC3)nc1-2` [Compound 4, 6-(cyclopropanecarboxamido)-N-methyl-4-((2-(oxetan-3-yl)-2,4-dihydrochromeno[4,3-c]pyrazol-6-yl)amino)pyridazine-3-carboxamide], the IC50 was more than 1000 nM in test [1], 300 to 1000 nM in test [3], more than 1000 nM in test [4] and 30 to 300 nM in test [2].
With `[2H]C([2H])([2H])NC(=O)c1nnc(NC(=O)NC)cc1Nc1cccc2c1N(C)C([2H])([2H])c1cn(C)nc1-2` [Compound 33, 4-((2,5-dimethyl-4,5-dihydro-2H-pyrazolo[4,3-c]quinolin-6-yl-4,4-d2)amino)-N-(methyl-d3)-6-(3-methylureido)pyridazine-3-carboxamide], the half-inhibitory concentration (IC50) in test [1] was less than 30 nM; in test [3] it was more than 1000 nM; in test [4], 300 to 1000 nM; in test [2], less than 30 nM.
For `[2H]C([2H])([2H])NC(=O)c1nnc(NC(=O)NC)cc1Nc1nccc2c1N(C)C([2H])([2H])c1cn(C)nc1-2` [Compound 74, 4-((2,5-dimethyl-4,5-dihydro-2H-pyrazolo[4,3-c][1,7]naphthyridin-6-yl-4,4-d2)amino)-N-(methyl-d3)-6-(3-methylureido)pyridazine-3-carboxamide], the IC50 in test [1] was less than 30 nM; in test [3], more than 1000 nM; in test [4] it was 30 to 300 nM; in test [2], less than 30 nM.
For the compound `[2H]C([2H])([2H])NC(=O)c1cnc(NC(=O)C2CC2)cc1Nc1cccc2c1N(C)[C@H](C)c1cn(C)nc1-2` (single isomer, unassigned) [Compound 31], the concentration for half-maximal inhibition (IC50) is 30 to 300 nM in test [1] and less than 30 nM in test [2].
In the case of `[2H]C([2H])([2H])NC(=O)c1nnc(NC(=O)NC)cc1Nc1nccc2c1N(C)[C@H](C)c1cn(C)nc1-2` (single isomer, unassigned) [Compound 78], the IC50 in test [1] fell in the range of 300 to 1000 nM; in test [2], 30 to 300 nM.
As to `[2H]C([2H])([2H])NC(=O)c1cnc(NC(=O)C2CC2)cc1Nc1cccc2c1N(C)Cc1cn(C(C)C)nc1-2` [Compound 37, 6-(cyclopropanecarboxamido)-4-((2-isopropyl-5-methyl-4,5-dihydro-2H-pyrazolo[4,3-c]quinolin-6-yl)amino)-N-(methyl-d3)nicotinamide], the IC50 in test [1] is 30 to 300 nM; in test [2] it was less than 30 nM.
In the case of `[2H]C([2H])([2H])NC(=O)c1nnc(NC(=O)C2CC2)cc1Nc1cccc2c1N(C)Cc1cc(C(F)(F)F)nn1-2` [Compound 54, 6-(cyclopropanecarboxamido)-N-(methyl-d3)-4-((5-methyl-2-(trifluoromethyl)-4,5-dihydropyrazolo[1,5-a]quinoxalin-6-yl)amino)pyridazine-3-carboxamide], the figures for the 50% inhibitory concentration (IC50) in test [1] and in test [2] were 300 to 1000 nM and 30 to 300 nM, respectively.
As for `[2H]C([2H])([2H])NC(=O)c1nnc(NC(=O)C2CC2)cc1Nc1nccc2c1N(C)[C@H](C)c1cc(C)nn1-2` [Compound 81, (R)-6-(cyclopropanecarboxamido)-N-(methyl-d3)-4-((2,4,5-trimethyl-4,5-dihydropyrazolo[1,5-a]pyrido[3,4-e]pyrazin-6-yl)amino)pyridazine-3-carboxamide], the IC50 in test [1] and in test [2] was less than 30 nM in each case.
Consider `[2H]C([2H])([2H])NC(=O)c1nnc(NC(=O)C2CC2)cc1Nc1cccc2c1N(C)Cc1cn(C(C)C)nc1-2` [Compound 91, 6-(cyclopropanecarboxamido)-4-((2-isopropyl-5-methyl-4,5-dihydro-2H-pyrazolo[4,3-c]quinolin-6-yl)amino)-N-(methyl-d3)pyridazine-3-carboxamide], for which the IC50 in test [1] was 30 to 300 nM; in test [2], less than 30 nM.
As for `[2H]C([2H])([2H])NC(=O)c1nnc(NC(=O)C2CC2)cc1Nc1nccc2c1N(C)C([2H])([2H])c1cn(C)nc1-2` [Compound 72, 6-(cyclopropanecarboxamido)-4-((2,5-dimethyl-4,5-dihydro-2H-pyrazolo[4,3-c][1,7]naphthyridin-6-yl-4,4-d2)amino)-N-(methyl-d3)pyridazine-3-carboxamide], the IC50 in test [3] was 300 to 1000 nM; in test [2], less than 30 nM.
For `[2H]C([2H])([2H])NC(=O)c1nnc(N(C)C(=O)C2CC2)cc1Nc1nccc2c1N(C)C([2H])([2H])c1cn(C)nc1-2` [Compound 62, 4-((2,5-dimethyl-4,5-dihydro-2H-pyrazolo[4,3-c][1,7]naphthyridin-6-yl-4,4-d2)amino)-N-(methyl-d3)-6-(N-methylcyclopropanecarboxamido)pyridazine-3-carboxamide], the IC50 in test [1] was 30 to 300 nM; in test [2], less than 30 nM.
